Reference: the supplement of paper PMC11451515

System: SEM cells
Assay: cell viability relative to DMSO control; higher = less cytotoxic
Conditions: 48 h
Summary of the method: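 Viability, reported as a per-plate percentage of DMSO wells with cell-free wells as background, came from CellTiter-Glo One luminescence. Reading took place after 48 h at 37°C. Before that, NOMO1 or SEM (500 cells/well) or P12-Ichikawa (1000 cells/well) leukemia cells, adapted for at least four passages in each medium, were seeded in 1536-well plates (5 μl) and pin-dosed with library compounds in DMSO, 47 μM to 0.79 nM over 11 threefold points.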

[1] = HPLM + 10% dialyzed FBS, 0.000781 µM
[2] = HPLM + 10% dialyzed FBS, 0.00234 µM
[3] = HPLM + 10% dialyzed FBS, 0.00702 µM
[4] = HPLM + 10% dialyzed FBS, 0.0211 µM
[5] = HPLM + 10% dialyzed FBS, 0.0632 µM
[6] = HPLM + 10% dialyzed FBS, 0.19 µM
[7] = HPLM + 10% dialyzed FBS, 0.569 µM
[8] = HPLM + 10% dialyzed FBS, 1.71 µM
[9] = HPLM + 10% dialyzed FBS, 5.12 µM
[10] = HPLM + 10% dialyzed FBS, 15.4 µM
[11] = HPLM + 10% dialyzed FBS, 46.1 µM
[12] = RPMI 5 mM glucose + 10% FBS, 0.000781 µM
[13] = RPMI 5 mM glucose + 10% FBS, 0.00234 µM
[14] = RPMI 5 mM glucose + 10% FBS, 0.00702 µM
[15] = RPMI 5 mM glucose + 10% FBS, 0.0211 µM
[16] = RPMI 5 mM glucose + 10% FBS, 0.0632 µM
[17] = RPMI 5 mM glucose + 10% FBS, 0.19 µM
[18] = RPMI 5 mM glucose + 10% FBS, 0.569 µM
[19] = RPMI 5 mM glucose + 10% FBS, 1.71 µM
[20] = RPMI 5 mM glucose + 10% FBS, 5.12 µM
[21] = RPMI 5 mM glucose + 10% FBS, 15.4 µM
[22] = RPMI 5 mM glucose + 10% FBS, 46.1 µM
[23] = RPMI 5 mM glucose + 10% dialyzed FBS, 0.000781 µM
[24] = RPMI 5 mM glucose + 10% dialyzed FBS, 0.00234 µM
[25] = RPMI 5 mM glucose + 10% dialyzed FBS, 0.00702 µM
[26] = RPMI 5 mM glucose + 10% dialyzed FBS, 0.0211 µM
[27] = RPMI 5 mM glucose + 10% dialyzed FBS, 0.0632 µM
[28] = RPMI 5 mM glucose + 10% dialyzed FBS, 0.19 µM
[29] = RPMI 5 mM glucose + 10% dialyzed FBS, 0.569 µM
[30] = RPMI 5 mM glucose + 10% dialyzed FBS, 1.71 µM
[31] = RPMI 5 mM glucose + 10% dialyzed FBS, 5.12 µM
[32] = RPMI 5 mM glucose + 10% dialyzed FBS, 15.4 µM
[33] = RPMI 5 mM glucose + 10% dialyzed FBS, 46.1 µM

Compound: C[C@](N)(Cc1ccc(O)c(O)c1)C(=O)O
- cell viability [1]: 83.9%
- cell viability [2]: 85.7%
- cell viability [3]: 94.4%
- cell viability [4]: 86.3%
- cell viability [5]: 102%
- cell viability [6]: 92.5%
- cell viability [7]: 84.1%
- cell viability [8]: 81.7%
- cell viability [9]: 83%
- cell viability [10]: 74.8%
- cell viability [11]: 6.26%
- cell viability [12]: 94.7%
- cell viability [13]: 106%
- cell viability [14]: 100%
- cell viability [15]: 111%
- cell viability [16]: 103%
- cell viability [17]: 81.6%
- cell viability [18]: 69.2%
- cell viability [19]: 93.5%
- cell viability [20]: 86.2%
- cell viability [21]: 72.9%
- cell viability [22]: 3.7%
- cell viability [23]: 103%
- cell viability [24]: 93.7%
- cell viability [25]: 95.9%
- cell viability [26]: 111%
- cell viability [27]: 97.8%
- cell viability [28]: 91.1%
- cell viability [29]: 98.5%
- cell viability [30]: 96.1%
- cell viability [31]: 88.2%
- cell viability [32]: 77.4%
- cell viability [33]: 4.47%

Compound: CCOc1cc(CC(=O)N[C@@H](CC(C)C)c2ccccc2N2CCCCC2)ccc1C(=O)O
- cell viability [1]: 83.9%
- cell viability [2]: 104%
- cell viability [3]: 121%
- cell viability [4]: 106%
- cell viability [5]: 116%
- cell viability [6]: 109%
- cell viability [7]: 122%
- cell viability [8]: 117%
- cell viability [9]: 132%
- cell viability [10]: 125%
- cell viability [11]: 119%
- cell viability [12]: 103%
- cell viability [13]: 110%
- cell viability [14]: 109%
- cell viability [15]: 109%
- cell viability [16]: 106%
- cell viability [17]: 108%
- cell viability [18]: 118%
- cell viability [19]: 134%
- cell viability [20]: 127%
- cell viability [21]: 129%
- cell viability [22]: 123%
- cell viability [23]: 105%
- cell viability [24]: 113%
- cell viability [25]: 123%
- cell viability [26]: 127%
- cell viability [27]: 109%
- cell viability [28]: 114%
- cell viability [29]: 119%
- cell viability [30]: 137%
- cell viability [31]: 130%
- cell viability [32]: 128%
- cell viability [33]: 134%

Compound: CNC(=O)C1=CC=C(C)C(=C1)N2C(=C/C(=C(/Br)C2=O)OCC3=C(F)C=C(F)C=C3)\C
- cell viability [1]: 109%
- cell viability [2]: 116%
- cell viability [3]: 123%
- cell viability [4]: 106%
- cell viability [5]: 126%
- cell viability [6]: 123%
- cell viability [7]: 131%
- cell viability [8]: 130%
- cell viability [9]: 125%
- cell viability [10]: 124%
- cell viability [11]: 120%
- cell viability [12]: 110%
- cell viability [13]: 127%
- cell viability [14]: 124%
- cell viability [15]: 122%
- cell viability [16]: 124%
- cell viability [17]: 116%
- cell viability [18]: 131%
- cell viability [19]: 139%
- cell viability [20]: 116%
- cell viability [21]: 113%
- cell viability [22]: 101%
- cell viability [23]: 115%
- cell viability [24]: 118%
- cell viability [25]: 136%
- cell viability [26]: 136%
- cell viability [27]: 134%
- cell viability [28]: 155%
- cell viability [29]: 148%
- cell viability [30]: 131%
- cell viability [31]: 109%
- cell viability [32]: 120%
- cell viability [33]: 103%

Compound: CCOc1ccc(Cc2cc([C@@H]3O[C@H](CO)[C@@H](O)[C@H](O)[C@H]3O)ccc2Cl)cc1
- cell viability [1]: 113%
- cell viability [2]: 108%
- cell viability [3]: 120%
- cell viability [4]: 107%
- cell viability [5]: 126%
- cell viability [6]: 125%
- cell viability [7]: 117%
- cell viability [8]: 121%
- cell viability [9]: 115%
- cell viability [10]: 128%
- cell viability [11]: 113%
- cell viability [12]: 102%
- cell viability [13]: 110%
- cell viability [14]: 110%
- cell viability [15]: 89.5%
- cell viability [16]: 106%
- cell viability [17]: 124%
- cell viability [18]: 112%
- cell viability [19]: 121%
- cell viability [20]: 121%
- cell viability [21]: 115%
- cell viability [22]: 118%
- cell viability [23]: 116%
- cell viability [24]: 104%
- cell viability [25]: 128%
- cell viability [26]: 85.6%
- cell viability [27]: 117%
- cell viability [28]: 124%
- cell viability [29]: 129%
- cell viability [30]: 122%
- cell viability [31]: 119%
- cell viability [32]: 117%
- cell viability [33]: 105%

Compound: C[C@H]1COC/2=C1/C(=O)C(=O)C3=C4CCCC(C)(C)C4=CC=C23
- cell viability [1]: 116%
- cell viability [2]: 93.8%
- cell viability [3]: 113%
- cell viability [4]: 126%
- cell viability [5]: 126%
- cell viability [6]: 134%
- cell viability [7]: 125%
- cell viability [8]: 106%
- cell viability [9]: 92.1%
- cell viability [10]: 84.1%
- cell viability [11]: 43.1%
- cell viability [12]: 124%
- cell viability [13]: 114%
- cell viability [14]: 135%
- cell viability [15]: 128%
- cell viability [16]: 141%
- cell viability [17]: 130%
- cell viability [18]: 106%
- cell viability [19]: 85.3%
- cell viability [20]: 42.1%
- cell viability [21]: 38.1%
- cell viability [22]: 12.5%
- cell viability [23]: 112%
- cell viability [24]: 107%
- cell viability [25]: 118%
- cell viability [26]: 128%
- cell viability [27]: 140%
- cell viability [28]: 116%
- cell viability [29]: 111%
- cell viability [30]: 104%
- cell viability [31]: 67.4%
- cell viability [32]: 64.5%
- cell viability [33]: 17.3%
